The values that follow come from PMC10419799, “Modes of Action of a Novel c-MYC Inhibiting 1,2,4-Oxadiazole Derivative in Leukemia and Breast Cancer Cells” (Molecules, 2023).

This assay concerns the target T1, c-MYC (Homo sapiens, UniProt P01106).
T1 construct: human recombinant c-MYC protein (Abcam ab169901)
As to the kind of experiment: microscale thermophoresis with RED-NHS labelled recombinant c-MYC. Format: binding.

T1 sequence (P01106 16-454): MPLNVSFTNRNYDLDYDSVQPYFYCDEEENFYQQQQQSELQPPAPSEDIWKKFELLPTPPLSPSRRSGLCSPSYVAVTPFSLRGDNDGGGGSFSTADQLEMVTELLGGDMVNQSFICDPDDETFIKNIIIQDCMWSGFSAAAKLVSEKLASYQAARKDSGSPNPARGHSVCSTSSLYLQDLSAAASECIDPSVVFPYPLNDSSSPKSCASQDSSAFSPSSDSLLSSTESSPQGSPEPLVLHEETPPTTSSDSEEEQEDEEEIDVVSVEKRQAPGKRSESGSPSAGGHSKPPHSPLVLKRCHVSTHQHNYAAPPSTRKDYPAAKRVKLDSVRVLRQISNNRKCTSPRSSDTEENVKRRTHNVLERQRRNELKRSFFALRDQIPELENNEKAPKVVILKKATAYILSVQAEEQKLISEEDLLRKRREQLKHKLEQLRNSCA

In the case of `Cc1ccc(NC(=O)N2Cc3[nH]cnc3C[C@H]2c2nc(-c3ccc4ccccc4c3)no2)cc1` [ZINC15675948, (6S)-N-(4-methylphenyl)-6-(3-naphthalen-2-yl-1,2,4-oxadiazol-5-yl)-3,4,6,7-tetrahydroimidazo [4,5-c]pyridine-5-carboxamide], the Kd was 1080 ± 100 nM.
